From PubChem BioAssay (NCI)
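Values below derive from 48-hour exposures of cells grown in 96-well plates, with endpoints linearly interpolated between the two concentrations bracketing the appropriate inhibition level. TGI: total growth inhibition.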

Experiments:
Assay in all cases: inhibition of tumour cell growth, NCI panel, 48 h
[1] = test system: U251 CNS
[2] = test system: UACC-62 melanoma
[3] = test system: RXF-631 renal
[4] = test system: TK-10 renal
[5] = test system: HCT-15 colon
[6] = test system: DMS 273 small cell lung
[7] = test system: SW-620 colon
[8] = test system: ACHN renal
[9] = test system: KM20L2 colon
[10] = test system: DMS 114 small cell lung
[11] = test system: SK-MEL-28 melanoma
[12] = test system: HOP-62 NSCLC
[13] = test system: HL-60(TB) leukemia
[14] = test system: HOP-92 NSCLC
[15] = test system: COLO 205 colon
[16] = test system: SF-295 CNS
[17] = test system: UO-31 renal
[18] = test system: RXF 393 renal
[19] = test system: SN12C renal
[20] = test system: OVCAR-8 ovarian
[21] = test system: LXFL 529 NSCLC
[22] = test system: K-562 leukemia
[23] = test system: SNB-75 CNS
[24] = test system: HT29 colon
[25] = test system: IGROV1 ovarian
[26] = test system: OVCAR-4 ovarian
[27] = test system: M14 melanoma
[28] = test system: CAKI-1 renal
[29] = test system: MALME-3M melanoma
[30] = test system: SNB-78 CNS
[31] = test system: A549 NSCLC
[32] = test system: HOP-18 NSCLC
[33] = test system: NCI-H460 lung
[34] = test system: DLD-1 colon
[35] = test system: EKVX NSCLC
[36] = test system: 786-0 renal
[37] = test system: NCI-H23 lung
[38] = test system: LOX IMVI melanoma
[39] = test system: M19-MEL melanoma
[40] = test system: SK-OV-3 ovarian
[41] = test system: OVCAR-3 ovarian
[42] = test system: SF-268 CNS
[43] = test system: HCC-2998 colon

Question: With `CCOC(=O)C1(Cc2ccccc2)CCCCCN1` (stereo not drawn) as the molecule, how does the TGI [1] read?
Answer: > 100 µM

Question: What about the TGI [2] of the same molecule?
Answer: > 100 µM

Question: What about the TGI [3] of the same molecule?
Answer: > 100 µM

Question: What about the TGI [4] of the same molecule?
Answer: > 100 µM

Question: And the TGI [5]?
Answer: > 100 µM

Question: What about the TGI [6] of the same molecule?
Answer: > 100 µM

Question: What about the TGI [7] of the same molecule?
Answer: > 100 µM

Question: What about the TGI [8] of the same molecule?
Answer: > 100 µM

Question: What about the TGI [9] of the same molecule?
Answer: > 100 µM

Question: What about the TGI [10] of the same molecule?
Answer: > 100 µM

Question: And the TGI [11]?
Answer: > 100 µM

Question: And the TGI [12]?
Answer: > 100 µM

Question: And the TGI [13]?
Answer: > 100 µM

Question: What about the TGI [14] of the same molecule?
Answer: > 100 µM

Question: What about the TGI [15] of the same molecule?
Answer: > 100 µM

Question: What about the TGI [16] of the same molecule?
Answer: > 100 µM

Question: What about the TGI [17] of the same molecule?
Answer: > 100 µM

Question: What about the TGI [18] of the same molecule?
Answer: > 100 µM

Question: And the TGI [19]?
Answer: > 100 µM

Question: What about the TGI [20] of the same molecule?
Answer: > 100 µM

Question: What about the TGI [21] of the same molecule?
Answer: > 100 µM

Question: What about the TGI [22] of the same molecule?
Answer: > 100 µM

Question: What about the TGI [23] of the same molecule?
Answer: 92.6 µM

Question: What about the TGI [24] of the same molecule?
Answer: > 100 µM

Question: And the TGI [25]?
Answer: > 100 µM

Question: What about the TGI [26] of the same molecule?
Answer: > 100 µM

Question: What about the TGI [27] of the same molecule?
Answer: > 100 µM

Question: And the TGI [28]?
Answer: > 100 µM

Question: And the TGI [29]?
Answer: > 100 µM

Question: What about the TGI [30] of the same molecule?
Answer: > 100 µM

Question: What about the TGI [31] of the same molecule?
Answer: > 100 µM

Question: And the TGI [32]?
Answer: > 100 µM

Question: And the TGI [33]?
Answer: > 100 µM

Question: What about the TGI [34] of the same molecule?
Answer: > 100 µM

Question: What about the TGI [35] of the same molecule?
Answer: > 100 µM

Question: And the TGI [36]?
Answer: > 100 µM

Question: And the TGI [37]?
Answer: > 100 µM

Question: And the TGI [38]?
Answer: > 100 µM

Question: And the TGI [39]?
Answer: > 100 µM

Question: And the TGI [40]?
Answer: > 100 µM

Question: And the TGI [41]?
Answer: > 100 µM

Question: What about the TGI [42] of the same molecule?
Answer: > 100 µM

Question: What about the TGI [43] of the same molecule?
Answer: > 100 µM
